The assay deals with T1, SH (O2-tolerant, NAD+-reducing hydrogenase, soluble hydrogenase) (Cupriavidus necator, UniProt P22317).
T1 construct: gene hoxF; purified; immobilised on Amberlite FP54; hydrogenase and diaphorase modules; with NAD-reducing hydrogenase HoxS subunit gamma; NAD-reducing hydrogenase HoxS subunit delta; NAD-reducing hydrogenase HoxS subunit beta; NAD-reducing hydrogenase subunit HoxI
In words: on-line H2 consumption and NADH evolution. It counts as biochemical. The following applies: immobilised enzyme in cascade; 2 mM NAD+, H2, Tris-HCl 50 mM pD 8.0, 22 °C.

Results on 1 molecule are retold here after article PMC7318245, “Powering Artificial Enzymatic Cascades with Electrical Energy” (Angewandte Chemie (International Ed. in English), 2020).

SMILES strings stand for the structures.

T1 sequence (P22317 whole entry): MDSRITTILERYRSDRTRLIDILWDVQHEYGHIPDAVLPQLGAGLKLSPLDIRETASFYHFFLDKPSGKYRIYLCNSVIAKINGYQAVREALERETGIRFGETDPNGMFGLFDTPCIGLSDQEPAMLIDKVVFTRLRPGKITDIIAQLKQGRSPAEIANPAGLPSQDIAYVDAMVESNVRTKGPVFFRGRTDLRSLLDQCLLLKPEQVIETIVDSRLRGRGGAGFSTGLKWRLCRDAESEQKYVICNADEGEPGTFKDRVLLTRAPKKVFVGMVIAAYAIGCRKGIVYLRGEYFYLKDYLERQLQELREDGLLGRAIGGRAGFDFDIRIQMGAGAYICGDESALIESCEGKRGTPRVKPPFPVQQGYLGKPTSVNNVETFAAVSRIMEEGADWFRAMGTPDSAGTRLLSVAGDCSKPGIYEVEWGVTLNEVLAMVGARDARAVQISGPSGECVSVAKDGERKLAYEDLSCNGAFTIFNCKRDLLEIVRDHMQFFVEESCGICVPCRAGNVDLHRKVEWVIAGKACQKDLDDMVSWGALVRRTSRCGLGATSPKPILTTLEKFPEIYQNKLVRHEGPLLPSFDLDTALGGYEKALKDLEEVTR
T1 sequence (P22318 2-234 partner): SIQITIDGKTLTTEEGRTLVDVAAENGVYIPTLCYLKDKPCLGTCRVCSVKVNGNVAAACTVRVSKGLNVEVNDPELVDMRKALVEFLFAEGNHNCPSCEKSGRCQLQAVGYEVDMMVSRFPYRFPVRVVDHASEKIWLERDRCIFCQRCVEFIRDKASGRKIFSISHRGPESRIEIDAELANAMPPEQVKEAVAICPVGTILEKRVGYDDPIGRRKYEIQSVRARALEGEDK
T1 sequence (P22319 whole entry partner): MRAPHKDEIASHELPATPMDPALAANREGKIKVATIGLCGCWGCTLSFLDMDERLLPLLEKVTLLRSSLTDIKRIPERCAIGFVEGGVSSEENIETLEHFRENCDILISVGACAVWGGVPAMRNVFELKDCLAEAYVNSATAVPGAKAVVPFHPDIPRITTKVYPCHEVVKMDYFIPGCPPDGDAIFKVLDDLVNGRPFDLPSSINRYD
T1 sequence (P22320 2-464 partner): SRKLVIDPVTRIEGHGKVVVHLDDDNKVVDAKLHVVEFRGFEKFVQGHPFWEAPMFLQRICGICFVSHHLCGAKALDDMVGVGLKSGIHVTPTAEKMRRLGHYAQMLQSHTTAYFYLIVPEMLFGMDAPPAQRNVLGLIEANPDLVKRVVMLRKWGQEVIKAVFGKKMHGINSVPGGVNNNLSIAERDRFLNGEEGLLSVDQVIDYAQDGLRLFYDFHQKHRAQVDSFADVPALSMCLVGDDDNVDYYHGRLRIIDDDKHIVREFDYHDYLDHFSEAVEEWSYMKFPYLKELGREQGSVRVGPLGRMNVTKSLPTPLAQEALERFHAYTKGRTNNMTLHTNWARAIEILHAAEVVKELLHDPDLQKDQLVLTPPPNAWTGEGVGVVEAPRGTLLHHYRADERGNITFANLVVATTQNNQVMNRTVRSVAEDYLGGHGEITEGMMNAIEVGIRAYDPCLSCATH

Regarding `NC(=O)c1ccc[n+]([C@@H]2O[C@H](COP(=O)(O)OP(=O)(O)OC[C@H]3O[C@@H](n4cnc5c(N)ncnc54)[C@H](O)[C@@H]3O)[C@@H](O)[C@H]2O)c1` [NAD^+], the “on-line H2 consumption and NADH evolution” value is “consumption of H2 (A) and the evolution of NADH (C)”.
